Values joined by “and” are separate entries in the source; they are usually repeats but may differ in a detail not shown here. Equal values may be shown once. Read-outs that look alike come from different tables or passages of the source.
System: panel of 66 cancer cell lines
Assay: cancer cell line screen, proliferation assay (ATPlite, 72 h)
Type: cell-based, human
Conditions: for raw signal, dose-response (Figure S7a): rep1, rep2, listed as AVX420; for IC50: Homo sapiens
Text: Targeting specific molecular vulnerabilities in cancer is considered a key approach to reducing the adverse effects of chemotherapy. However, the events that govern the susceptibility to suppression of the cPLA2α in cancer remain largely unexplored. We therefore took the approach of screening the antiproliferative activity of AVX420 in a panel of 66 cancer cell lines (hereafter referred to as the cancer cell line screen or CCLS) to allow us to investigate molecular and genetic vulnerabilities to the drug.
Screening of compound activities in 66 cancer cell lines was carried out at the Netherlands Translation Research Center. Briefly, proliferation assays were performed 72 h after compound addition using ATPlite 1step reagent (Perkin Elmer). IC50s calculated by non-linear regression analysis were used as a measure of compound activity for investigating associations with genetic factors. A complete description of the laboratory and data analysis methods are available in the Supplementary Information file (Supplemental Methods: Cancer Cell Line Screening).
Cancer cell line screening
Cell proliferation assays
All cell lines were from the American Type Culture Collection (ATCC) Manassas, Virginia (US) and maintained under ATCC-recommended protocols and within 9 pas- […]
DMSO at -80°C until one hour before use. Cells exposed within one hour after thaw-ing of the compound stocks. Final compound concentration range in the assay was 10 […]
cated by supplier. Compounds were dissolved in 100 % DMSO and stored at room temperature. Final concentration of the reference compounds in the assay was 3.16x10-5 M to 3.16x10-9 M. The final DMSO concentration during incubation was […]
Cell lines were plated in Advanced RPMI 1640 (Gibco, ref 12633-012) cell culture medium, containing 1% Glutamax solution (Gibco, ref 35050-038), 0.4% Pen Strep solution (Gibco, ref 15140-122) and bovine serum. The cPLA2α inhibitors were tested in 0.5% bovine serum (HyClone, ref SH30072.03) with the exception of769-P, A-204, BT-549, SR, T98G, which were tested in the presence of 1.0% serum and A-704 and LNCaP FGS, which were tested in the in the presence of 10% serum. Reference com-pounds were all tested in the presence of 10% bovine serum.
Cells were dispensed in a 384-well plate, at a concentration of 200 - 3200 cells per well, depending on the cell line, in 45 μL medium. Plated cells were incubated in a humidified atmosphere of 5% CO2 at 37 °C. After 24 hours, 5 μL of compound dilu-tion was added and plates were further incubated for another 72 hours. After 72 hours, 25 μL of ATPlite 1Step™ (PerkinElmer) solution was added to each well, and subse-quently shaken for 2 minutes. After 10 minutes of incubation in the dark, the lumines-cence was recorded on an Envision multimode reader (PerkinElmer).
Cell growth control. The cellular doubling times of all cell lines are calculated from the t = 0 hours and t = 72 hours growth signals of the untreated cells. If the doubling time is out of specification (0.5 – 2.0 times deviating from historic average) the assay […]
IC50s were calculated by non-linear regression using IDBS XLfit 5. The percentage growth after 72h (%-growth) was calculated as follows: 100% x (luminescence t = 72h / luminescence untreated,t=72h). This was fitted to the 10log compound concentration (conc) by a 4-parameter logistics curve: %-growth = bottom + (top – bottom) / (1+ 10(logIC50 – conc)*hill)), where hill is the Hill-coefficient, and bottom and top the asymptotic mini-mum and maximum cell growth that the compound allows in that assay.
All analysis were performed in the statistical software package R and visualized using GraphPad Prism version 10.0 .0

SMILES: CCCCCCCOc1ccc(OCC(=O)c2nc(C(=O)OC)cs2)cc1 [GK420]
- average panel 10logIC50 (10log of IC50 in nM, panel average): 4.17
- pIC50 (769P, kidney): 4,561
- pIC50 (786O, kidney): 4,867
- pIC50 (A172, central_nervous_system): 4,692
- pIC50 (A204, soft_tissue): 4,646
- pIC50 (A375, skin): 4,764
- pIC50 (A388, cervix): 4,776
- pIC50 (A427, lung): 4,923
- pIC50 (A498, kidney): 4,615
- pIC50 (A549, lung): 4,624
- pIC50 (ACHN, kidney): 4,799
- pIC50 (AN3CA, endometrium): 4,941
- pIC50 (AU565, breast): 4,836
- pIC50 (AsPC1, pancreas): 4,597
- pIC50 (BT20, breast): 4,474
- pIC50 (BT549, breast): 4,818
- pIC50 (BxPC3, pancreas): 4,715
- pIC50 (CAL27, upper_aerodigestive_tract): 4,804
- raw signal, dose-response (Figure S7a) (CCRF-CEM, Log10 M -4): 5160 and 4973
- raw signal, dose-response (Figure S7a) (CCRF-CEM, Log10 M -4.5): 1680 and 1133
- raw signal, dose-response (Figure S7a) (CCRF-CEM, Log10 M -6): 1223867 and 1721613
- raw signal, dose-response (Figure S7a) (CCRF-CEM, Log10 M -6.5): 5260280 and 5359267
- raw signal, dose-response (Figure S7a) (CCRF-CEM, Log10 M -7): 5505373 and 6147053
- raw signal, dose-response (Figure S7a) (CCRF-CEM, Log10 M -7.5): 5656213 and 5825533
- raw signal, dose-response (Figure S7a) (CCRF-CEM, Log10 M -8): 5419560 and 5847920
- pIC50 (COLO829, unknown): 4,761
- pIC50 (Daoy, central_nervous_system): 4,867
- pIC50 (DoTc24510, cervix): 4,743
- pIC50 (HCT15, large_intestine): 4,945
- pIC50 (HCT116, large_intestine): 4,795
- IC50 (769-P, read-out: IC50): 27.5 µM
- IC50 (786-0, 786-O, read-out: IC50): 13.6 µM
- IC50 (72 h, panel average, 72 h, read-out: average IC50 in the cancer cell line screen): 18.4 µM
- IC50 (A 172, A-172, read-out: IC50): 20.3 µM
- IC50 (A204, A-204, read-out: IC50): 22.6 µM
- IC50 (A388, read-out: IC50): 16.8 µM
- IC50 (A498, A-498, read-out: IC50): 24.3 µM
- IC50 (A549, A-549, read-out: IC50): 23.8 µM
- IC50 (A704, A704, kidney, read-out: pIC50 (converted)): 34 µM
- IC50 (A704, A-704, read-out: IC50): > 100 µM
- IC50 (A-375, A375, read-out: IC50): 17.2 µM
- IC50 (A-427, A-427, read-out: IC50): 11.9 µM
- IC50 (ACHN, read-out: IC50): 15.9 µM
- IC50 (AN3-CA, AN3 CA, read-out: IC50): 11.4 µM
- IC50 (ASPC1, AsPC-1, read-out: IC50): 25.3 µM
- IC50 (AU565, AU-565, read-out: IC50): 14.6 µM
- IC50 (BT-20, BT-20, read-out: IC50): 33.6 µM
- IC50 (BT-549, BT-549, read-out: IC50): 15.2 µM
- IC50 (BXPC-3, BxPC-3, read-out: IC50): 19.3 µM
- IC50 (C-33-A, C33A, cervix, read-out: pIC50 (converted)): 1.74 µM
- IC50 (C-33-A, C-33 A, read-out: IC50): 1.74 µM
- IC50 (CAL-27, CAL 27, read-out: IC50): 15.7 µM
- IC50 (CCRF-CEM, CCRFCEM, blood, read-out: pIC50 (converted)): 0.708 µM
- IC50 (CCRF-CEM, read-out: IC50): 0.708 µM
- IC50 (COLO 205, COLO 205, read-out: IC50): 22.3 µM
- IC50 (COLO-829, COLO 829, read-out: IC50): 17.3 µM
- IC50 (DLD-1, DLD1, large_intestine, read-out: pIC50 (converted)): 13.8 µM
- IC50 (DLD-1, DLD-1, read-out: IC50): 13.8 µM
- IC50 (DU-145, DU 145, read-out: IC50): 25.3 µM
- IC50 (Daoy, read-out: IC50): 13.6 µM
- IC50 (DoTc2-4510, DoTc2 4510, read-out: IC50): 18.1 µM
- IC50 (FaDu, upper_aerodigestive_tract, read-out: pIC50 (converted)): 25.7 µM
- IC50 (FaDu, read-out: IC50): 25.7 µM
- IC50 (HCT-15, HCT-15, read-out: IC50): 11.4 µM
- IC50 (HCT-116, HCT 116, read-out: IC50): 16 µM
- IC50 (Hs-578T, Hs 578T, read-out: IC50): 14.7 µM
- IC50 (J82, J82, read-out: IC50): 19.2 µM
- IC50 (Jurkat E6.1, Jurkat E6.1, read-out: IC50): 0.569 µM
- IC50 (K562, K-562, read-out: IC50): 15.3 µM
- IC50 (KU812, KU812, read-out: IC50): 9.13 µM
- IC50 (LNCaP, LNCaP FGC, read-out: IC50): 91.7 µM
- IC50 (LS174T, LS 174T, read-out: IC50): 20.3 µM
- IC50 (LoVo, read-out: IC50): 16.6 µM
- IC50 (MCF7, MCF7, read-out: IC50): 14.7 µM
- IC50 (MG-63, MG-63, read-out: IC50): 22.7 µM
- IC50 (MIA PaCa-2, MIA PaCa-2, read-out: IC50): 13.1 µM
- IC50 (MOLT-4, MOLT-4, read-out: IC50): 4.07 µM
- IC50 (MeWo, read-out: IC50): 19.5 µM
- IC50 (NCI-H82, NCI-H82, read-out: IC50): 4.84 µM
- IC50 (NCI-H460, NCI-H460, read-out: IC50): 32.5 µM
- IC50 (OVCAR-3, OVCAR-3, read-out: IC50): 13.7 µM
- IC50 (PA1, ovary, read-out: pIC50 (converted)): 2.88 µM
- IC50 (PA-1, PA-1, read-out: IC50): 2.88 µM
- IC50 (RKO, read-out: IC50): 10.1 µM
- IC50 (RPMI-7951, RPMI-7951, read-out: IC50): 14.1 µM
- IC50 (RT-4, RT4, read-out: IC50): 33.4 µM
- IC50 (SHP77, SHP-77, read-out: IC50): 13.8 µM
